The values below come from paper PMC6429502, “Synthesis and AChE-Inhibitory Activity of New Benzimidazole Derivatives” (Molecules, 2019).

In one test the target is AChE (Electrophorus electricus, UniProt O42275). Kind of test: AChE inhibition, modified Ellman's method. The format is biochemical. In general terms: DTNB colorimetry detects thiols as they appear.
A further test has as its system BChE. Type of test: biochemical. The procedure: New benzimidazole-triazole derivatives were designed, synthesized, and evaluated for their potential to inhibit AChE and BChE. First, all the synthesized compounds were tested at 10^−3 M and 10^−4 M concentrations.
The inhibitory activities of the compounds against AChE and BChE were determined in 96-well plates by modified Ellman’s method as defined in our previous studies. Donepezil and tacrine were used as reference drugs. A robotic system, Biotek Precision XS (Winooski, VT, USA), was used for all pipetting processes in the enzyme inhibition assay. Measurements of the percentage inhibition were carried out at 412 nm by using a BioTek-Synergy H1 microplate reader (Winooski, VT, USA). Inhibition potencies of synthesized compounds and IC50 of selected derivatives were calculated as reported previously.

Where two headings read alike, the source gives them in different places.

AChE, sequence (O42275 24-633): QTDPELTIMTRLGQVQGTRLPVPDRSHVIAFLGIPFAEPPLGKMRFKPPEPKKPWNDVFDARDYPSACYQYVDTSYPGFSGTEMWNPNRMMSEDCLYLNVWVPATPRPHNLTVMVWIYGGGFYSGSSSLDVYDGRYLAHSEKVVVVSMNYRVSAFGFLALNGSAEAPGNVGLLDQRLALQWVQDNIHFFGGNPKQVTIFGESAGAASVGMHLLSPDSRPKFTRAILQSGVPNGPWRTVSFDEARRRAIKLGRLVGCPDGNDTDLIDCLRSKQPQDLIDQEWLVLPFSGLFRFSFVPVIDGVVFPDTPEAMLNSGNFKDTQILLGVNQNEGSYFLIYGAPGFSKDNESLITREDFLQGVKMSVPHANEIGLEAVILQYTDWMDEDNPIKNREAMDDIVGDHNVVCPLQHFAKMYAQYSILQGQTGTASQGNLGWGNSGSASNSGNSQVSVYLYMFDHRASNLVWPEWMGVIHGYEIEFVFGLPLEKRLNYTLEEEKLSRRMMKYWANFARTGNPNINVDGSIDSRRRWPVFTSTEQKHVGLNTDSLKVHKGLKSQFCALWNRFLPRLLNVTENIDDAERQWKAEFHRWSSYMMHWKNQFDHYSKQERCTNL

Regarding `Cn1c(SCC(=O)c2ccc(C#N)cc2)nnc1-c1ccc(-c2nc3cc(Cl)ccc3[nH]2)cc1` [3a, 2-(4-(4-Methyl-5-(2-(4-cyanophenyl)-2-oxo-ethylthio)-4H-1,2,4-triazol-3yl)-phenyl)-5(6)-chloro-1H-benz-imidazole], the “% Inhibition AChE” value worked out at 68.18 ± 1.05% at AChE (10^−3 M) and 47.26 ± 0.62% on AChE (10^−4 M). Further, the “% Inhibition BChE” value in the test with BChE (10^−3 M) stood at 40.28 ± 0.98%; in the test on BChE (10^−4 M) it was 25.13 ± 0.56%.
On to `Cn1c(SCC(=O)c2ccc(Br)cc2)nnc1-c1ccc(-c2nc3cc(Cl)ccc3[nH]2)cc1` [3b, 2-(4-(4-Methyl-5-(2-(4-bromophenyl)-2-oxo-ethylthio)-4H-1,2,4-triazol-3yl)-phenyl)-5(6)-chloro-1H-benz-imidazole], for which the “% Inhibition AChE” value amounted to 44.20 ± 0.87% at AChE (10^−3 M) and 26.18 ± 0.63% at AChE (10^−4 M). Moreover, the “% Inhibition BChE” value in the test on BChE (10^−3 M) stood at 28.15 ± 0.97%; in the test on BChE (10^−4 M) it was 18.42 ± 0.88%.
In the case of `Cc1ccc(C(=O)CSc2nnc(-c3ccc(-c4nc5cc(Cl)ccc5[nH]4)cc3)n2C)cc1` [3c, 2-(4-(4-Methyl-5-(2-(4-methylphenyl)-2-oxo-ethylthio)-4H-1,2,4-triazol-3yl)-phenyl)-5(6)-chloro-1H-benz-imidazole], the “% Inhibition AChE” value on AChE (10^−3 M) was 39.18 ± 0.71%; on AChE (10^−4 M) it was 17.89 ± 0.54%. In addition, the “% Inhibition BChE” value stood at 26.11 ± 0.74% with BChE (10^−3 M) and 20.21 ± 0.61% in the test with BChE (10^−4 M).
Consider `CCn1c(SCC(=O)c2ccc(C#N)cc2)nnc1-c1ccc(-c2nc3cc(Cl)ccc3[nH]2)cc1` [3e, 2-(4-(4-Ethyl-5-(2-(4-cyanophenyl)-2-oxo-ethylthio)-4H-1,2,4-triazol-3yl)-phenyl)-5(6)-chloro-1H-benz-imidazole], for which the entries for the “% Inhibition AChE” value on AChE (10^−3 M) and on AChE (10^−4 M) were 77.29 ± 1.06% and 41.22 ± 0.84%, respectively. Moreover, the “% Inhibition BChE” value in the test on BChE (10^−3 M) was 38.22 ± 0.63%; in the test on BChE (10^−4 M) it was 22.41 ± 0.47%.
For the compound `CCn1c(SCC(=O)c2ccc(Br)cc2)nnc1-c1ccc(-c2nc3cc(Cl)ccc3[nH]2)cc1` [3f, 2-(4-(4-Ethyl-5-(2-(4-bromophenyl)-2-oxo-ethylthio)-4H-1,2,4-triazol-3yl)-phenyl)-5(6)-chloro-1H-benz-imidazole], the “% Inhibition AChE” value is 47.22 ± 0.67% at AChE (10^−3 M) and 24.08 ± 0.48% at AChE (10^−4 M). Besides, the “% Inhibition BChE” value is reported as 29.15 ± 0.59% with BChE (10^−3 M) and 17.88 ± 0.40% in the test on BChE (10^−4 M).
As for `CCn1c(SCC(=O)c2ccc(C)cc2)nnc1-c1ccc(-c2nc3cc(Cl)ccc3[nH]2)cc1` [3g, 2-(4-(4-Ethyl-5-(2-(4-methylphenyl)-2-oxo-ethylthio)-4H-1,2,4-triazol-3yl)-phenyl)-5(6)-chloro-1H-benz-imidazole], the “% Inhibition AChE” value at AChE (10^−3 M) was found to be 37.20 ± 0.68%; on AChE (10^−4 M), 18.33 ± 0.38%. The results for the “% Inhibition BChE” value with BChE (10^−3 M) and in the test with BChE (10^−4 M) were 31.89 ± 0.99% and 24.75 ± 0.95%, respectively.
Regarding `Cn1c(SCC(=O)c2ccc(C#N)cc2)nnc1-c1ccc(-c2nc3cc(F)ccc3[nH]2)cc1` [3i, 2-(4-(4-Methyl-5-(2-(4-cyanophenyl)-2-oxo-ethylthio)-4H-1,2,4-triazol-3yl)-phenyl)-5(6)-fluoro-1H-benz-imidazole], the “% Inhibition AChE” value on AChE (10^−3 M) is 61.22 ± 1.02%; at AChE (10^−4 M), 38.28 ± 0.67%. Further, the “% Inhibition BChE” value turned out to be 43.51 ± 0.78% in the test on BChE (10^−3 M) and 18.49 ± 0.50% with BChE (10^−4 M).
As for `Cn1c(SCC(=O)c2ccc(Br)cc2)nnc1-c1ccc(-c2nc3cc(F)ccc3[nH]2)cc1` [3j, 2-(4-(4-Methyl-5-(2-(4-bromophenyl)-2-oxo-ethylthio)-4H-1,2,4-triazol-3yl)-phenyl)-5(6)-fluoro-1H-benz-imidazole], the figures for the “% Inhibition AChE” value at AChE (10^−3 M) and at AChE (10^−4 M) were 48.51 ± 0.88% and 18.39 ± 0.60%, respectively. The “% Inhibition BChE” value with BChE (10^−3 M) came out at 29.64 ± 0.87%; in the test on BChE (10^−4 M), 21.44 ± 0.70%.
